From patent EP0684822B1, “CARBOCYCLIC DEOXYGUANOSINE ANALOGS FOR THE TREATMENT OF VIRAL INFECTIONS” (SOUTHERN RESEARCH INSTITUTE, priority 1993, dated 1994)
In brackets after ≈: the same amount, converted by molar mass. Several values for one entry are separate records, joined by “and”; a condition that tells them apart may be missing. Identical values can stand only once. Like-named read-outs stand apart in the source and are kept apart here.

Key:
HBV = HBV DNA production and replication in 2.2.15 cell cultures; type: cell-based, Hepatitis B virus (HBV); details: 100 uM
Description: 2'-CdG was tested at three concentrations (50 ng/ml, 500 ng/ml, and 5 ug/ml) against the HBV-producing, human liver cell line, 2.2.15 (Sells et al., J. Virol. 62:2836, 1989). A racemic (D,L) preparation, as well as the purified D and L isomers were tested. For these analyses compounds were tested in duplicate at all concentrations. Ara-AMP and ddG (2'3'-dideoxyguanosine) were used as HBV inhibitory control compounds. […] The nucleoside analog, ddG was used as an additional control compound since ddG has activity against duck hepatitis B virus in chronically infected Peking ducks (Lee et al., Antimicrob. Agents Chemother. 33:336, 1989) and 2'-CdG is also a deoxyguanosine analog.
2.2.15 cells were seeded in 6 well culture plates and grown to confluence over a 10 day period in medium with 5% FBS. Test compounds were then added daily for a continuous 10 day period in medium with 1% dialyzed FBS. […] Compounds were tested, in duplicate cultures, at 3 concentrations covering a 100-fold range. Culture medium (changed daily during the treatment period) was collected and stored for analysis of extracellular (virion) HBV DNA from days 0, 3, 6, and 10 of the treatment period. This allowed for an analysis of the level of HBV virion production during discrete 24 hour intervals and reduced the potential for the buildup of toxic metabolites derived from the test compounds. Treated cells were lysed following the 10th day of treatment for the analysis of intracellular HBV genomic forms. HBV DNA was analyzed in a quantitative manner for (i) overall levels (both extracellular and intracellular DNA) and (ii) the relative rate of HBV replication (intracellular DNA only).
HBV DNA levels were measured by comparison to known amounts of HBV DNA standards applied to every nitrocellulose filter (gel or slot blot) using an AMBIS Beta Scanner. Standard curves, generated by multiple analyses, were used to correlate CPM measurements with relative levels of target HBV DNA. The levels of HBV DNA in each of three classes of intracellular viral genomic forms were individually quantitated: integrated HBV DNA, episomal monomeric genomes and HBV DNA replication intermediates (RI). Integrated HBV DNA was used to normalize the relative amounts of DNA in each lane because the levels of this class of HBV DNA would be expected to remain constant on a per cell basis. The levels of the monomeric HBV genomes and RI were used as an indicator of the relative level of HBV replication.

HSV-1 (strain 377, TK+) = assay: Antiviral activity against HSV-1; type: cell-based
Description: (§1) D-2'-CdG and L-2'-CdG were tested, alongside D,L-2'-CdG, against both HSV-1 (strain 377, TK+; obtained from Dr. Earl Kern, University of Alabama) and HSV-2 (strain MS, TK+; also obtained from Dr. Earl Kern). In these tests (Table 5), Ara-A and acyclovir (ACV) were the positive control drugs. In four tests vs. HSV-1, the antiviral activity (VR) and potency (MIC50) of D-2'-CdG were approximately the same as those of racemic 2-CdG. L-2'-CdG was only modestly active.

HSV-2 (strain MS, TK+) = assay: Antiviral activity against HSV-2; type: cell-based
Description: as §1
These compounds were tested against HSV-2(TK^+). The VR of ACV was somewhat higher than the VR values of D-2'-CdG and D,L-2'-CdG, but the values of MIC50 of the two forms of 2'-CdG were lower. In addition, experiments comparing the antiviral activity D-2'-CdG with acyclovir against HSV-1 in human foreskin fibroblasts have shown an even greater potency, in favor of D-2'-CdG.

human CMV = assay: In vitro activity against human CMV in human foreskin fibroblast cells; type: cell-based; details: Human betaherpesvirus 5, read-out: ED50 value (median dose at which 50% antiviral efficacy is observed)
Description: The in vitro activity of D-2'-CdG was also compared with the current investigational drug of choice for human CMV, DHPG. These experiments were carried out in human foreskin fibroblast cells.

[1] = 24 hours following 10th day of treatment

## Nc1nc2c(ncn2[C@H]2CC[C@@H](CO)O2)c(=O)[nH]1 [DDG, 2'3'-dideoxyguanosine, reference compound]
HBV; [1]
  INTRACELLULAR HBV DNA INTEG.: 1.6 PG/UG CELL DNA and 1.7 PG/UG CELL DNA
  INTRACELLULAR HBV DNA MONO.: 0.2 PG/UG CELL DNA and 0.1 PG/UG CELL DNA
  INTRACELLULAR HBV DNA RI: 0.1 PG/UG CELL DNA
HBV; day 0 of treatment
  HBV DNA IN CULTURE MEDIUM DAY 0: 49 pg/mL and 58 pg/mL
HBV; day 3
  HBV DNA IN CULTURE MEDIUM DAY 3: 35 pg/mL and 41 pg/mL
HBV; day 10
  HBV DNA IN CULTURE MEDIUM DAY 10: 0 pg/mL

## Nc1ncnc2c1ncn2[C@@H]1O[C@H](CO)[C@@H](O)[C@@H]1O [Ara-A, adenosine arabinoside, reference compound]
HSV-1 (strain 377, TK+); HSV-1, range of tests
  VR: 1.6-2.5
HSV-1 (strain 377, TK+); Human alphaherpesvirus 1, read-out: Mic50
  EC50: 10 to 34 µg/mL (≈ 37.4 to 127 µM)
HSV-2 (strain MS, TK+); HSV-2
  VR: 1.3
HSV-2 (strain MS, TK+); Human alphaherpesvirus 2, read-out: Mic50
  EC50: 50 µg/mL (≈ 187 µM)

## Nc1nc(O)c2ncn(COC(CO)CO)c2n1 [DHPG, dihydroxy propoxymethyl guanine, reference compound]
Human CMV
  EC50: 0.2 µg/mL (≈ 0.784 µM)

## Nc1nc2c(ncn2COCCO)c(=O)[nH]1 [Acyclovir, acyloguanosine, reference compound]
HSV-1 (strain 377, TK+); HSV-1, range of tests
  VR: 5.7-6.5
HSV-1 (strain 377, TK+); Human alphaherpesvirus 1, HSV-1, range of tests, read-out: Mic50
  EC50: 1.5 to 2.9 µg/mL (≈ 6.66 to 12.9 µM)
HSV-2 (strain MS, TK+); HSV-2
  VR: 4.5
HSV-2 (strain MS, TK+); Human alphaherpesvirus 2, HSV-2, read-out: Mic50
  EC50: 5.3 µg/mL (≈ 23.5 µM)
